Consider five molecules from patent publication US9040573B2, “Anti-fungal agent” (Nihon Nohyaku Co., Ltd., priority 2011, dated 2015).

Values after ≈ are worked out from the molar mass of the structure shown. Like-named read-outs stand apart in the source and are kept apart here. A value given as a limit tells only on which side of the number the result lay.

One assay deals with Scytalidium dimidiatum. Nature of the assay: Antifungal Activity Test 1: MIC by broth microdilution method (Alamar Blue). In kind it is cell-based. To be noted: Neoscytalidium dimidiatum; for MIC: growth inhibited by 80% or more, read-out: MIC; for MIC90: concentration to be MIC in 9 strains out of the 10 strains (90%), read-out: MIC90. From the text:
Scytalidium dimidiatum strain of clinical isolate obtained by separation and identification from nail or stratum corneum of patients with superficial mycosis was used. The fungi pre-cultured on an SDA medium was suspended in 0.1% (w/v) Tween 80-containing sterile saline and the suspension was filtered through gauze to collect arthrospore. This was suspended in 0.1% (w/v) Tween 80-containing sterile saline, and added to a 20% Alamar Blue-containing medium to 2×10^4 cells/mL to give a fungal inoculum solution.
(§1) Each drug was used after dissolving in DMSO (dimethyl sulfoxide).
(§2) The minimum inhibitory concentration (MIC) was measured by a broth microdilution method. That is, RPMI1640 medium (Sigma-Aldrich) was buffered with 0.165 M morpholine propanesulfonic acid (MOPS, Wako Pure Chemical Industries, Ltd.) to pH 7.0, and a given amount of a solution of the drug in DMSO was added thereto to prepare 2-fold dilution series within the range of 0.00098-4 μg/mL. This was added to a 96-well microplate by 100 μL, a fungal inoculum solution (100 μL, final concentration of fungi to be added: 1.0×10^4 cells/mL) was added, and the mixture was cultured at 35° C. An Alamar Blue reagent was added in advance to the culture medium (final addition concentration: 10%) and, at the time point when the Alamar Blue reagent in the drug-free growth control group changed from blue to red, the culture was discontinued and the absorbance (differential optical density at 570 nm based on 590 nm served as reference) measured. The minimum concentration of the drug that inhibited the growth of the fungus in the growth control group by 80% or more was taken as MIC. The concentration to be MIC (MIC90) in 9 strains out of the 10 strains (90%) measured was determined.
Reference documents for measurement method: Takako Shinoda et al.: opinion proposed by Committee for Clinical Laboratory Standards of The Japanese Society for Medical Mycology (1995-1997), Method for antifungal susceptibility testing of filamentous fungus, Medical Mycology Journal, 40: 239-257, 1999. Clinical Laboratory Standards Institute/National Committee for Clinical Laboratory Standards. Reference method for broth dilution antifungal susceptibility testing of filamentous fungus. Approved Standard M38-A2. Wayne, Pa.: National Committee for Clinical Laboratory Standards, 2008. Test Results

Another assay deals with Scytalidium hyalinum. Nature of the assay: Antifungal Activity Test 2: MIC by broth microdilution method (Alamar Blue). The assay is classed as cell-based. To be noted: Neoscytalidium hyalinum. As for the experimental part: as §2
Scytalidium hyalinum strain of clinical isolate available from CBS (Netherlands) was used. The fungus was pre-cultured in an SDA medium, 0.1% (w/v) Tween 80-containing sterile saline was added to give a suspension, which was filtered through gauze to collect arthrospore. This was suspended in 0.1% (w/v) Tween 80-containing sterile saline, and added to a 20% Alamar Blue-containing medium to 2×10^4 cells/mL to give a fungal inoculum solution.
as §1
The test method was the same as in the aforementioned antifungal activity test 1, and the minimum concentration of the drug that inhibited the growth of the fungus in the growth control group by 80% or more was taken as MIC. The MIC range of the 4 strains measured and the geometric mean (GM) of each drug were determined.
On the technique in general: Broth dilution looks for growth in wells or tubes with falling amounts of substance.

Where [1] appears, read: clinical isolate CBS200.88, growth inhibited by 80% or more, read-out: MIC.
Setting [2] is: clinical isolate CBS545.95, growth inhibited by 80% or more, read-out: MIC.
Setting [3] is: clinical isolate CBS601.85, growth inhibited by 80% or more, read-out: MIC.
[4] abbreviates: clinical isolate CBS619.84, growth inhibited by 80% or more, read-out: MIC.
The mark [5] stands for this setting: geometric mean of the 4 strains measured, read-out: GM (geometric mean of MIC).
Setting [6] is: range of the 4 strains measured, read-out: MIC range.

Usually MIC stands for the smallest concentration in the dilution series that meets the test's criterion for growth inhibition. As usually defined, the MIC90 is the lowest concentration that inhibits either 90% of growth or 90% of the strains tested, depending on the study. As for `OC(Cn1cncn1)(Cn1cncn1)c1ccc(F)cc1F` [FCZ, fluconazole], the MIC with Scytalidium dimidiatum (clinical isolate 530129), with Scytalidium dimidiatum (clinical isolate 530142), with Scytalidium dimidiatum (clinical isolate 530251), in the assay on Scytalidium dimidiatum (clinical isolate 530621), in the assay with Scytalidium dimidiatum (clinical isolate 530633) and in the assay on Scytalidium dimidiatum (clinical isolate 530914) was more than 4 µg/mL each time. Besides, the MIC in the assay on Scytalidium dimidiatum (clinical isolate 530946), in the assay on Scytalidium dimidiatum (clinical isolate 530999), with Scytalidium dimidiatum (clinical isolate 531581), in the assay on Scytalidium dimidiatum (clinical isolate 531869), with Scytalidium hyalinum (setting [1]) and with Scytalidium hyalinum (setting [2]) was more than 4 µg/mL in each case. Also, the MIC in the assay with Scytalidium hyalinum (setting [3]) was 2 µg/mL (≈ 6.53 µM); in the assay on Scytalidium hyalinum (setting [4]), more than 4 µg/mL; in the assay with Scytalidium hyalinum (setting [5]), more than 4 µg/mL. Also, in the assay on Scytalidium dimidiatum, the MIC90 is more than 4 µg/mL.
Turning to `C[C@@H](c1ncncc1F)[C@](O)(Cn1cncn1)c1ccc(F)cc1F` [VCZ, voriconazole], the MIC in the assay on Scytalidium dimidiatum (clinical isolate 530129) was 0.25 µg/mL (≈ 0.716 µM); in the assay on Scytalidium dimidiatum (clinical isolate 530142), 0.25 µg/mL (≈ 0.716 µM); in the assay with Scytalidium dimidiatum (clinical isolate 530251), 0.13 µg/mL (≈ 0.372 µM); in the assay with Scytalidium dimidiatum (clinical isolate 530621) it was 0.25 µg/mL (≈ 0.716 µM); in the assay on Scytalidium dimidiatum (clinical isolate 530633), 0.25 µg/mL (≈ 0.716 µM); in the assay on Scytalidium dimidiatum (clinical isolate 530914), 0.25 µg/mL (≈ 0.716 µM). The MIC with Scytalidium dimidiatum (clinical isolate 530946) was 0.25 µg/mL (≈ 0.716 µM); with Scytalidium dimidiatum (clinical isolate 530999), 0.13 µg/mL (≈ 0.372 µM); in the assay with Scytalidium dimidiatum (clinical isolate 531581), 0.25 µg/mL (≈ 0.716 µM); with Scytalidium dimidiatum (clinical isolate 531869), 0.13 µg/mL (≈ 0.372 µM); in the assay with Scytalidium hyalinum (setting [1]), 0.13 µg/mL (≈ 0.372 µM); with Scytalidium hyalinum (setting [2]) it was 0.063 µg/mL (≈ 0.18 µM). The minimum inhibitory concentration (MIC) in the assay with Scytalidium hyalinum (setting [3]) was 0.016 µg/mL (≈ 0.0458 µM); with Scytalidium hyalinum (setting [4]) it was 0.13 µg/mL (≈ 0.372 µM); in the assay with Scytalidium hyalinum (setting [5]), 0.064 µg/mL (≈ 0.183 µM); in the assay on Scytalidium hyalinum (setting [6]), 0.016 to 0.13 µg/mL (≈ 0.0458 to 0.372 µM). Besides, the MIC90 in the assay on Scytalidium dimidiatum was 0.25 µg/mL (≈ 0.716 µM).
Regarding `CCC(C)(C)c1ccc(CC(C)CN2C[C@@H](C)O[C@@H](C)C2)cc1` (stereo partly drawn) [AMO, amorolfine], the MIC in the assay on Scytalidium dimidiatum (clinical isolate 530129) was 0.5 µg/mL (≈ 1.57 µM); with Scytalidium dimidiatum (clinical isolate 530142), 1 µg/mL (≈ 3.15 µM); in the assay on Scytalidium dimidiatum (clinical isolate 530251), 2 µg/mL (≈ 6.3 µM); in the assay with Scytalidium dimidiatum (clinical isolate 530621) it was 1 µg/mL (≈ 3.15 µM); with Scytalidium dimidiatum (clinical isolate 530633), 0.5 µg/mL (≈ 1.57 µM); with Scytalidium dimidiatum (clinical isolate 530914), 2 µg/mL (≈ 6.3 µM). Further, the minimal inhibitory concentration (MIC) in the assay on Scytalidium dimidiatum (clinical isolate 530946) turned out to be 1 µg/mL (≈ 3.15 µM); with Scytalidium dimidiatum (clinical isolate 530999), 1 µg/mL (≈ 3.15 µM); in the assay with Scytalidium dimidiatum (clinical isolate 531581), 0.5 µg/mL (≈ 1.57 µM); with Scytalidium dimidiatum (clinical isolate 531869), 0.5 µg/mL (≈ 1.57 µM); in the assay on Scytalidium hyalinum (setting [1]) it was 2 µg/mL (≈ 6.3 µM); in the assay with Scytalidium hyalinum (setting [2]), 2 µg/mL (≈ 6.3 µM). In addition, the MIC with Scytalidium hyalinum (setting [3]), with Scytalidium hyalinum (setting [4]), in the assay on Scytalidium hyalinum (setting [5]) and in the assay with Scytalidium hyalinum (setting [6]) was 2 µg/mL (≈ 6.3 µM) in each case. Moreover, the MIC90 in the assay on Scytalidium dimidiatum was 2 µg/mL (≈ 6.3 µM).
As for `N#C/C(=C1/SC[C@@H](c2ccc(Cl)cc2Cl)S1)n1ccnc1` [LLCZ, (−)-(E)-[(4R)-(2,4-dichlorophenyl)-1,3-dithioran-2-ylidene](1H-imidazol-1-yl)acetonitrile], the MIC in the assay on Scytalidium dimidiatum (clinical isolate 530129), in the assay on Scytalidium dimidiatum (clinical isolate 530142), with Scytalidium dimidiatum (clinical isolate 530251), in the assay with Scytalidium dimidiatum (clinical isolate 530621), in the assay with Scytalidium dimidiatum (clinical isolate 530633) and with Scytalidium dimidiatum (clinical isolate 530914) was 0.002 µg/mL (≈ 0.00565 µM) throughout. The MIC was 0.002 µg/mL (≈ 0.00565 µM) in the assay on Scytalidium dimidiatum (clinical isolate 530946); 0.002 µg/mL (≈ 0.00565 µM) with Scytalidium dimidiatum (clinical isolate 530999); 0.002 µg/mL (≈ 0.00565 µM) with Scytalidium dimidiatum (clinical isolate 531581); 0.00098 µg/mL (≈ 0.00277 µM) with Scytalidium dimidiatum (clinical isolate 531869); 0.00098 µg/mL (≈ 0.00277 µM) in the assay with Scytalidium hyalinum (setting [1]); 0.00098 µg/mL (≈ 0.00277 µM) with Scytalidium hyalinum (setting [2]). Moreover, the MIC in the assay with Scytalidium hyalinum (setting [3]) was 0.00012 µg/mL (≈ 0.000339 µM); with Scytalidium hyalinum (setting [4]), 0.00098 µg/mL (≈ 0.00277 µM); in the assay with Scytalidium hyalinum (setting [5]), 0.00058 µg/mL (≈ 0.00164 µM); in the assay with Scytalidium hyalinum (setting [6]), 0.00012 to 0.00098 µg/mL (≈ 0.000339 to 0.00277 µM). Further, in the assay on Scytalidium dimidiatum, the MIC90 stood at 0.002 µg/mL (≈ 0.00565 µM).
In the case of `Clc1ccccc1C(c1ccccc1)(c1ccccc1)n1ccnc1` [CTZ, clotrimazole], the minimal inhibitory concentration (MIC) in the assay with Scytalidium dimidiatum (clinical isolate 530129) came out at 0.5 µg/mL (≈ 1.45 µM); in the assay with Scytalidium dimidiatum (clinical isolate 530142), 0.5 µg/mL (≈ 1.45 µM); in the assay with Scytalidium dimidiatum (clinical isolate 530251), 0.25 µg/mL (≈ 0.725 µM); with Scytalidium dimidiatum (clinical isolate 530621) it was 0.5 µg/mL (≈ 1.45 µM); with Scytalidium dimidiatum (clinical isolate 530633) it was 0.5 µg/mL (≈ 1.45 µM); with Scytalidium dimidiatum (clinical isolate 530914) it was 0.5 µg/mL (≈ 1.45 µM). The MIC with Scytalidium dimidiatum (clinical isolate 530946) turned out to be 0.5 µg/mL (≈ 1.45 µM); in the assay on Scytalidium dimidiatum (clinical isolate 530999), 0.25 µg/mL (≈ 0.725 µM); in the assay on Scytalidium dimidiatum (clinical isolate 531581) it was 0.25 µg/mL (≈ 0.725 µM); in the assay with Scytalidium dimidiatum (clinical isolate 531869) it was 0.25 µg/mL (≈ 0.725 µM); in the assay with Scytalidium hyalinum (setting [1]), 0.13 µg/mL (≈ 0.377 µM); in the assay with Scytalidium hyalinum (setting [2]) it was 0.13 µg/mL (≈ 0.377 µM). The MIC with Scytalidium hyalinum (setting [3]) is 0.13 µg/mL (≈ 0.377 µM); with Scytalidium hyalinum (setting [4]), 0.25 µg/mL (≈ 0.725 µM); in the assay with Scytalidium hyalinum (setting [5]), 0.15 µg/mL (≈ 0.435 µM); in the assay with Scytalidium hyalinum (setting [6]), 0.13 to 0.25 µg/mL (≈ 0.377 to 0.725 µM). Further, in the assay with Scytalidium dimidiatum, the MIC90 came to 0.5 µg/mL (≈ 1.45 µM).
